Structures are written as SMILES. Like-named read-outs stand apart in the source and are kept apart here.

For one data set, the system named is diabetic rats. The following applies: cited from earlier work.
Data set [1] in a line: Ocular tissue concentration study at twelve weeks following a single intravitreal dose in pigmented rabbits. It is filed as in vivo. To be noted: both sexes, Dutch-belted, rabbit, other: intravitreal, single bilateral intravitreal dose of suspension, Day 86. The method, then: An aqueous suspension pharmaceutical composition of milled N—[(R)-1-[(S)-1-(4-aminomethyl-benzylcarbamoyl)-2-phenyl-ethylcarbamoyl]-2-(4-ethoxy-phenyl)-ethyl]-benzamide hydrochloride was prepared according to Example B1. The resulting nominal 50 mg/mL suspension was diluted with the milling vehicle (prepared according to Example B1) into dosing formulations for intravitreal injection. Five experimentally naïve male and female Dutch-belted rabbits, approximately 5 months old and weighing 1.6 to 2.2 kilograms at the outset of the study were assigned to treatment groups as shown in Table iv. [table] Animals were administered bilateral intravitreal doses of the suspension formulations once on Day 1. On Day 86, the vitreous humors and retina (with choroid) tissues were analysed for active ingredient concentration.

On to `N=C(N)c1ccc(CNC(=O)c2cnn(Cc3ccccc3)c2)cc1` [ASP-440], for which, in the data set with diabetic rats, the “retinal blood flow abnormalities” value is listed as “ameliorated” and the retinal vascular permeability result is reported as “ameliorated”.
`CCOc1ccc(C[C@@H](NC(=O)c2ccccc2)C(=O)N[C@@H](Cc2ccccc2)C(=O)NCc2ccc(CN)cc2)cc1` [active ingredient, N—[(R)-1-[(S)-1-(4-aminomethyl-benzylcarbamoyl)-2-phenyl-ethylcarbamoyl]-2-(4-ethoxy-phenyl)-ethyl]-benzamide]: the concentration at 86 day in data set [1] (retina (with choroid), 15 μg/eye, low-dose group (15 μg/eye), read-out: average retina (with choroid) tissue concentration) was 1620 ng/g; in data set [1] (retina (with choroid), 150 μg/eye, high-dose group (150 μg/eye), read-out: average retina (with choroid) tissue concentration) it was 44500 ng/g; in data set [1] (vitreous humor, 15 μg/eye, low-dose group (15 μg/eye), read-out: vitreous humor concentrations (range)), 0.000216 to 0.935 µg/mL; in data set [1] (vitreous humor, 150 μg/eye, high-dose group (150 μg/eye), read-out: average vitreous humor concentration), 27.8 µg/mL; in data set [1] (vitreous humor, 150 μg/eye, high-dose group (150 μg/eye), read-out: vitreous humor concentrations (range)) it was 2.5 to 56.5 µg/mL.

The values above are taken from patent US9849100B2, “Pharmaceutical compositions suitable for parenteral administration comprising aqueous suspensions of benzylamine derivatives having low solubilities” (KalVista Pharmaceuticals Limited, priority 2013, dated 2017).
